{"source": "patent US6548053B1", "about": "“Control of intra-ocular pressure” (The University of Birmingham, priority 1999, dated 2003)", "assay_type_in_all_cases": "in vivo, human", "key": {"[1]": {"tested_on": "healthy male volunteers", "assay": "Clinical study: intra-ocular pressure (Goldmann applanation tonometer) under oral carbenoxolone", "settings": "for reduction in IOP during the day (08:00 to 20:00 hrs): baseline reduction 0.38±1.16; for reduction in IOP during the day (08:00 to 20:00 hrs), percent: baseline 2.51%; for IOP of one subject vs days 1 and 2 (FIG. 3): both eyes", "procedure": "(§1) A clinical study was undertaken to assess the functional significance of 11β-HSD within the eye by oral administration of carbenoxolone, a known inhibitor of both 11β-HSD1 and 11β-HSD2. The study was undertaken on eight healthy male volunteers who were not on any systemic or topical medications and had no family history of glaucoma. Baseline intra-ocular pressure readings were measured using the same Goldmann applanation tonometer at 08:00, 12:00, 16:00 and 20:00 hours on two consecutive days. Systolic and diastolic blood pressures were also measured at each time point. Venous blood was analysed for serum electrolytes on day one and urine was collected for 24-hour urinary free cortisol and GC/MS for cortisol/cortisone ratios. The subjects then commenced a course of 100 mg carbenoxolone taken orally three times a day for seven consecutive days. The IOP measurements and blood pressure recordings were repeated at each time point on the third and seventh day of carbenoxolone ingestion (i.e. days five and nine of the study). Urea and electrolytes were also measured on these days and inhibition of 11β-HSD was confirmed by comparing the original urinary F/E ratio with that from urine aliquoted from a further 24-hour collection performed between days six and seven of ingestion. […] There was no difference between each eye of each subject. The IOP was lower on day seven of ingestion (11.50±2.08) than on day three (12.48±1.48) compared with the mean baseline values (p<0.0001 for both days), the difference between days three and seven being significant (p<0.001). There was also a small reduction in intra-ocular pressure during the course of the day, i.e. from 08:00 hrs to 20:00 hrs (baseline reduction of0.38±1.16 (2.51%), p=0.076)."}, "[2]": {"tested_on": "11β-HSD", "assay": "Clinical study: urinary free cortisol and GC/MS urinary steroid ratios confirming inhibition of 11β-HSD", "procedure": "as §1, with “In addition, there” for “There”, “a significant decrease in” for “no difference between each eye of each subject. The IOP was lower on day seven of ingestion (11.50±2.08) than on day three (12.48±1.48) compared with”, “tetrahydrocortisol (THF)+allo-THF/tetrahydrocortisone (THE) ratio (pre-THF+allo-THF/THE=0.92±0.23, per-THF+allo-THF/THE=0.7±0.19, p=0.0012). This reflects” for “mean baseline values (p<0.0001 for both days),”, “relative 11β-HSD1/HSD2 activities predominantly” for “difference between days three and seven being significant (p<0.001). There was also a small reduction”, “in” for “in intra-ocular pressure during”, “liver.” for “course of the day, i.e. from 08:00 hrs to 20:00 hrs (baseline reduction of0.38±1.16 (2.51%), p=0.076).”"}, "[3]": {"assay": "Clinical study: systolic and diastolic blood pressure and serum electrolytes", "settings": "throughout the study, 100 mg orally three times a day for seven days", "procedure": "A clinical study was undertaken to assess the functional significance of 11β-HSD within the eye by oral administration of carbenoxolone, a known inhibitor of both 11β-HSD1 and 11β-HSD2. The study was undertaken on eight healthy male volunteers who were not on any systemic or topical medications and had no family history of glaucoma. Baseline intra-ocular pressure readings were measured using the same Goldmann applanation tonometer at 08:00, 12:00, 16:00 and 20:00 hours on two consecutive days. Systolic and diastolic blood pressures were also measured at each time point. Venous blood was analysed for serum electrolytes on day one and urine was collected for 24-hour urinary free cortisol and GC/MS for cortisol/cortisone ratios. The subjects then commenced a course of 100 mg carbenoxolone taken orally three times a day for seven consecutive days. The IOP measurements and blood pressure recordings were repeated at each time point on the third and seventh day of carbenoxolone ingestion (i.e. days five and nine of the study). Urea and electrolytes were also measured on these days and inhibition of 11β-HSD was confirmed by comparing the original urinary F/E ratio with that from urine aliquoted from a further 24-hour collection performed between days six and seven of ingestion.\nThere was no difference between each eye of each subject. […]"}}}
{"molecule": "CC1(C)[C@@H](OC(=O)CCC(=O)O)CC[C@]2(C)[C@H]3C(=O)C=C4[C@@H]5C[C@@](C)(C(=O)O)CC[C@]5(C)CC[C@@]4(C)[C@]3(C)CC[C@@H]12", "note": "[carbenoxolone]", "values": [{"measurement": "reduction in IOP during the day (08:00 to 20:00 hrs)", "setting": "[1]; day seven of ingestion, p=0.0006", "result": "2.25±1.91"}, {"measurement": "reduction in IOP during the day (08:00 to 20:00 hrs), percent", "setting": "[1]; day seven of ingestion", "result": 17.31, "unit": "%"}, {"measurement": "reduction in IOP during the day (08:00 to 20:00 hrs)", "setting": "[1]; day three of ingestion, p=0.0058", "result": "0.86±0.83"}, {"measurement": "reduction in IOP during the day (08:00 to 20:00 hrs), percent", "setting": "[1]; day three of ingestion", "result": 6.51, "unit": "%"}, {"measurement": "per-IOP (mean IOP on ingesting carbenoxolone)", "setting": "[1]; eight subjects, 100 mg orally three times a day, pre-IOP 14.7±1.39", "result": "12.00±1.87"}, {"measurement": "IOP on day seven of ingestion", "setting": "[1]; eight subjects, day seven of ingestion (study day 9), p<0.0001 vs mean baseline", "result": "11.50±2.08"}, {"measurement": "IOP on day three of ingestion", "setting": "[1]; eight subjects, day three of ingestion (study day 5), p<0.0001 vs mean baseline", "result": "12.48±1.48"}, {"measurement": "subjects showing a decrease in IOP", "setting": "[1]; eight subjects, drop significant in seven individuals (<0.01)", "result": "All eight subjects showed a decrease in IOP"}, {"measurement": "overall reduction in IOP", "setting": "[1]; mean of eight subjects, 100 mg orally three times a day for seven days, vs pre-IOP 14.7±1.39, p<0.000001", "result": 18.2, "unit": "%"}, {"measurement": "IOP of one subject vs days 1 and 2 (FIG. 3)", "setting": "[1]; day 5 (third day of ingestion)", "result": "generally lower"}, {"measurement": "IOP of one subject vs days 1 and 2 (FIG. 3)", "setting": "[1]; day 9 (seventh day of ingestion)", "result": "even lower"}, {"measurement": "24-hour urinary free cortisol", "setting": "[2]; 24-hour urine between days six and seven of ingestion vs baseline", "result": "no significant change"}, {"measurement": "per-F/E (urinary cortisol/cortisone ratio by GC/MS)", "setting": "[2]; 24-hour urine between days six and seven of ingestion, pre-F/E 0.497±0.189, p=0.004", "result": "1.144±0.382"}, {"measurement": "per-THF+allo-THF/THE ratio", "setting": "[2]; urine on ingestion, pre value 0.92±0.23, p=0.0012", "result": "0.7±0.19"}, {"measurement": "serum electrolytes", "setting": "[3]", "result": "remained stable"}, {"measurement": "systolic and diastolic blood pressures", "setting": "[3]", "result": "remained stable"}]}
